Source: US7186701B2, “Dehydrating agent and method for dehydrating moist article using the agent and dehydrated article obtained by the method” (Kabushiki Kaisha Hayashibara Seibutsu Kagaku Kenkyujo, priority 2001, dated 2007)

Assays:
[1] = test system: α-isomaltosylglucosaccharide-forming enzyme; assay: Specificity of transfer acceptor (C9 enzyme); assay type: biochemical, Bacillus globisporus C9 strain; details: acceptor 1.6%, PINE-DEX #100 donor 4%, one unit/g donor, 30° C., pH 6.0, 24 hours
Experimental: (§1) A variety of saccharides were tested whether they could be used as transferring-acceptors for the α-isomaltosylglucosaccharide-forming enzyme. A solution of D-glucose, D-xylose, L-xylose, D-galactose, D-fructose, D-mannose, D-arabinose, D-fucose, L-sorbose, L-rhamnose, methyl-α-glucopyranoside, methyl-β-glucopyranoside, N-acetyl-glucosamine, sorbitol, α,α-trehalose, isomaltose, isomaltotriose, cellobiose, gentibiose, maltitol, lactose, sucrose, α-cyclodextrin, β-cyclodextrin, or γ-cyclodextrin was prepared. […] The reaction mixtures after the enzymatic reactions were analyzed on gas chromatography (abbreviated as “GLC” hereinafter) for monosaccharides and disaccharides as acceptors, and on HPLC for trisaccharides and higher saccharides as acceptors to confirm whether these saccharides could be used as their transfer acceptors. In the case of performing GLC, the following apparatuses and conditions were used: […] In the case of HPLC analysis, the apparatuses and conditions used were: HPLC apparatus, “CCPD” commercialized by Tosoh Corporation, Tokyo, Japan; column, “ODS-AQ-303” commercialized by YMC Co., Ltd., Tokyo, Japan; eluent, water at a flow rate of 0.5 ml/min; and detection, a differential refractometer.

[2] = test system: α-isomaltosylglucosaccharide-forming enzyme; assay: Specificity of transfer acceptor (C11 enzyme); assay type: biochemical, Bacillus globisporus C11 strain; details: acceptor 1.6%, PINE-DEX #100 donor 4%, one unit/g donor, 30° C., pH 6.0, 24 hours
Experimental: as §1

amylopsin = molecular target: T1, amylopsin (Homo sapiens, UniProt P04746); assay: Digestion test in vitro, amylopsin
T1 sequence (P04746 16-511): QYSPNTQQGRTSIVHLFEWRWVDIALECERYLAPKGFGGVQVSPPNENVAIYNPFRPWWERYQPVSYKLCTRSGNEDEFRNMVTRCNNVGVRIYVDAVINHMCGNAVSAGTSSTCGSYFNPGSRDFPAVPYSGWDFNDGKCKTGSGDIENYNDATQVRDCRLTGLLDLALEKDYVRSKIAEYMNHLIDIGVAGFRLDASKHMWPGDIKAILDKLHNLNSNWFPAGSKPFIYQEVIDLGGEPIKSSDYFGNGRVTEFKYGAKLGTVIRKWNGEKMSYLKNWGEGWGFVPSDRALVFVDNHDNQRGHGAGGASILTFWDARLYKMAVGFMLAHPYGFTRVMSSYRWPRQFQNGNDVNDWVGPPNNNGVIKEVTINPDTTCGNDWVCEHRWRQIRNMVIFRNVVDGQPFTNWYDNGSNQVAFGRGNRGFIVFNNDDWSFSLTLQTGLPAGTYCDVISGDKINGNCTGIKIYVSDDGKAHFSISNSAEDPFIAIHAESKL

salivary amylase = molecular target: T2, salivary amylase (Homo sapiens, UniProt P0DUB6); assay: Digestion test in vitro, salivary amylase
T2 sequence (P0DUB6 16-511): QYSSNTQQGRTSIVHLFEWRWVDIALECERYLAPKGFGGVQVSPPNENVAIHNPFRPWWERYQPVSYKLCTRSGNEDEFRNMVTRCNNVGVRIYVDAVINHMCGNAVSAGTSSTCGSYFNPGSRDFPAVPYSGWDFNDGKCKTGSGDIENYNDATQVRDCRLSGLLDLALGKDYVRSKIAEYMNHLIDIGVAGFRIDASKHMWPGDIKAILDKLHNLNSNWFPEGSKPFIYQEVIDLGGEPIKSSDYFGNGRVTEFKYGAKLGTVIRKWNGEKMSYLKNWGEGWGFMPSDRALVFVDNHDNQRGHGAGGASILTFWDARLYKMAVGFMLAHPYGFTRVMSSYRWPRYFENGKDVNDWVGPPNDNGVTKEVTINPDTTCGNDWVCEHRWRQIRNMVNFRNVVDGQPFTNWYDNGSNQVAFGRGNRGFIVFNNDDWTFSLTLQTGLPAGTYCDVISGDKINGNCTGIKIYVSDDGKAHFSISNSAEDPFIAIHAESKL

[3] = Digestion test in vitro, synthetic gastric juice
[4] = test system: Small intestinal mucosal enzyme; assay: Digestion test in vitro, small intestinal mucosal enzyme
[5] = test system: α-isomaltosylglucosaccharide-forming enzyme; assay: Influence of metal ions on α-isomaltosylglucosaccharide-forming enzyme activity (C11 strain); assay type: biochemical, Bacillus globisporus C11 strain; details: in the presence of 1 mM metal salt; None = 100
Experimental: (§2) The activities of these enzymes were assayed as follows: The activity of α-isomaltosylglucosaccharide-forming enzyme was assayed by dissolving maltotriose in 100 mM acetate buffer (pH 6.0) to give a concentration of 2% (w/v) for a substrate solution, adding 0.5 ml of an enzyme solution to 0.5 ml of the substrate solution, enzymatically reacting the mixture solution at 35° C. for 60 min, boiling the reaction mixture for 10 min to suspend the enzymatic reaction, and quantifying maltose, among the isomaltosyl maltose and maltose formed in the reaction mixture, on HPLC as described in Experiment 1. One unit activity of the α-isomaltosylglucosaccharide-forming enzyme was defined as the enzyme amount that forms one micromole of maltose per minute under the above enzymatic reaction conditions.
(§3) The influence of metal ions on the activity of α-isomaltosylglucosaccharide-forming enzyme was examined in the presence of 1 mM of any of metal salts according to the assay for the enzyme activity.

[6] = Dehydration and pulverization of plain yogurt by non-reducing saccharide; set-up: unit not given here; details: listed as A
Experimental: The anhydrous crystalline cyclotetrasaccharide; crystalline cyclotetrasaccharide, monohydrate; and anhydrous amorphous cyclotetrasaccharide were respectively prepared by the methods in Examples A-1, A-2, and A-3. As the crystalline α,α-trehalose, dihydrate, a commercially available “TREHA®” commercialized by Hayashibara Shoji Inc., Okayama, Japan, was used. The anhydrous crystalline α,α-trehalose and the anhydrous amorphous α,α-trehalose used in this experiment were prepared from a commercialized crystalline α,α-trehalose, dihydrate, using the methods disclosed in Examples for Reference 1 and 3 in Japanese Patent Kokai No. 170,221/94. To four parts by weight of a plain yogurt with a moisture content of about 77% was added either of the above saccharides in an amount of 11 to 16 parts by weight. The resultant mixtures were respectively placed in vats, allowed to stand at 25° C. for 24 hours, and macroscopically observed their change on standing. The judgement was conducted in such a manner of sufficiently dehydrating the resulting mixtures to be solidified, subjected to a pulverizer for pulverization, and evaluated as “◯”, when the solids were easily pulverized; “Δ”, when the dehydration of the resulting mixtures was rather insufficient and the pulverization of solids was substantially difficult, though the resulting mixtures were solidified; and “x”, when the dehydration of the resulting mixtures was insufficient and could not be pulverized by a pulverizer.

[7] = Dehydrating action: moisture absorption on standing at controlled relative humidity; assay type: physicochemical; details: for moisture content (%) by the Karl Fisher method: 25° C., listed as A
Description: Anhydrous crystalline cyclotetrasaccharide; crystalline cyclotetrasaccharide, monohydrate; anhydrous amorphous cyclotetrasaccharide; and crystalline cyclotetrasaccharide, penta- or hexa-hydrate were experimented in detail on their dehydrating actions, particularly, moisture absorption abilities against saccharides and changes on standing. As a control, anhydrous crystalline α,α-trehalose, anhydrous amorphous α,α-trehalose, and crystalline α,α-trehalose, dihydrate, were used as saccharides. The experiments were as follows: […]

Aspergillus niger = assay: Bacterial contamination of gelatinized starch (gyuhi); details: at 30 days on standing, 25° C., open conditions
Experimental: The mixture was mixed with a mixer and further mixed to homogeneity with two parts by weight of a starch hydrolyzate, shaped, and roughly dried for two hours, while blowing 40° C. hot air to the contents, to obtain “gyuhi” (a rice paste with sugar).

[8] = test system: α-isomaltosylglucosaccharide-forming enzyme; assay: Influence of metal ions on α-isomaltosylglucosaccharide-forming enzyme activity (C9 strain); assay type: biochemical, Bacillus globisporus C9 strain; details: in the presence of 1 mM metal salt; None = 100
Experimental: as §2, §3

[9] = test system: Bacteroides vulgatus JCM 5826; assay: Assimilation test; assay type: cell-based; details: 0.5% saccharide in PYF medium, 37° C., four days, anaerobic
[10] = test system: Bifidobacterium adolescentis JCM 1275; assay: Assimilation test; assay type: cell-based; details: 0.5% saccharide in PYF medium, 37° C., four days, anaerobic
[11] = test system: Clostridium perfringens JCM 3816; assay type: cell-based; details: 0.5% saccharide in PYF medium, 37° C., four days, anaerobic
[12] = test system: Escherichia coli IFO 3301; assay: Assimilation test; assay type: cell-based; details: 0.5% saccharide in PYF medium, 37° C., four days, anaerobic
[13] = test system: Eubacterium aerofaciens ATCC 25986; assay: Assimilation test; assay type: cell-based; details: 0.5% saccharide in PYF medium, 37° C., four days, anaerobic
[14] = test system: Lactobacillus acidophilus JCM 1132; assay: Assimilation test; assay type: cell-based; details: 0.5% saccharide in PYF medium, 37° C., four days, anaerobic

OC[C@@H](O)[C@@H](O[C@H]1O[C@H](CO)[C@@H](O)[C@H](O)[C@H]1O)[C@H](O)[C@@H](O)CO [Maltitol, maltitol]
Product of saccharide transferring reaction, Enzyme of C9 strain [1]: ++ (a saccharide-transferred product was detected in an amount of at least ten percent through transferring reaction to acceptor) | Product of saccharide transferring reaction, Enzyme of C11 strain [2]: ++ (a saccharide-transferred product was detected in an amount of at least ten percent through transferring reaction to acceptor) | Decomposition percentage (%) by digestive enzyme (amylopsin): 0.0% | Decomposition percentage (%) by digestive enzyme (salivary amylase): 0.0% | Decomposition percentage (%) by digestive enzyme [3]: 0.0% | Decomposition percentage (%) by digestive enzyme [4]: 4.0%

[Al+3] [Al^3+]
Relative activity (%) [5]: 100%

OC[C@H]1O[C@@H]2OC[C@H]3O[C@H](O[C@@H]4[C@@H](O)[C@@H](OC[C@H]5O[C@H](O[C@H]([C@H]2O)[C@@H]1O)[C@H](O)[C@@H](O)[C@@H]5O)O[C@H](CO)[C@H]4O)[C@H](O)[C@@H](O)[C@@H]3O [Saccharide A, anhydrous crystalline cyclotetrasaccharide]
Water content (before use) [6]: 0.2 | moisture content (%) by the Karl Fisher method ([7]; relative humidity 60%, 0 days after treatment): 0.2% | moisture content (%) by the Karl Fisher method ([7]; relative humidity 60%, 1 day after treatment): 10.2% | moisture content (%) by the Karl Fisher method ([7]; relative humidity 60%, 2 days after treatment): 10.3% | moisture content (%) by the Karl Fisher method ([7]; relative humidity 60%, 3 days after treatment): 10.3% | moisture content (%) by the Karl Fisher method ([7]; relative humidity 60%, 7 days after treatment): 10.4% | moisture content (%) by the Karl Fisher method ([7]; relative humidity 75%, 0 days after treatment): 0.2% | moisture content (%) by the Karl Fisher method ([7]; relative humidity 75%, 1 day after treatment): 13.9% | moisture content (%) by the Karl Fisher method ([7]; relative humidity 75%, 2 days after treatment): 14.4% | moisture content (%) by the Karl Fisher method ([7]; relative humidity 75%, 3 days after treatment): 14.4% | moisture content (%) by the Karl Fisher method ([7]; relative humidity 75%, 7 days after treatment): 14.3% | moisture absorption level, % of its weight ([7]; relative humidity of 60%, listed as anhydrous crystalline cyclotetrasaccharide): about 10% | moisture absorption level, % of its weight ([7]; relative humidity of 75%): about 14% | bacterial contamination in gyuhi (Aspergillus niger): found no bacterial contamination

[Mg+2] [Mg^2+]
Relative activity (%) [8]: 100%

O=C[C@H](O)[C@@H](O)[C@H](O)[C@H](O)CO [D-Glucose, D-glucose, reference compound]
Product of saccharide transferring reaction, Enzyme of C9 strain [1]: + (a saccharide-transferred product was detected in an amount of at least one percent but less than ten percent through transferring reaction to acceptor) | Product of saccharide transferring reaction, Enzyme of C11 strain [2]: + (a saccharide-transferred product was detected in an amount of at least one percent but less than ten percent through transferring reaction to acceptor) | Assimilability [9]: + (judged as positive (+) when the post culture had a pH of below 6.0) | Assimilability [10]: + (judged as positive (+) when the post culture had a pH of below 6.0) | Assimilability [11]: + (judged as positive (+) when the post culture had a pH of below 6.0) | Assimilability [12]: + (judged as positive (+) when the post culture had a pH of below 6.0) | Assimilability [13]: + (judged as positive (+) when the post culture had a pH of below 6.0) | Assimilability [14]: + (judged as positive (+) when the post culture had a pH of below 6.0)

[Fe+2] [Fe^2+]
Relative activity (%) [5]: 100%
